{
  "source": "patent US20030073206A1",
  "about": "“Use of xylene monooxygenase for the oxidation of substituted monocyclic aromatic compounds” (priority 2001, published 2003)",
  "key": {"Sphingomonas strain ASU1": {"system": "Sphingomonas strain ASU1", "experiment": "Carbon source utilization for strain ASU1 (growth on S12 agar with aromatic compounds)", "format": "cell-based, Sphingomonas sp.", "conditions": "compound as sole source of carbon and energy, 28° C.", "experimental": "S12 agar was used to isolate bacteria from liquid enrichment cultures that grow on 2,6-dimethylnaphthalene (2,6-DMN) and to test isolates for growth with various sources of carbon and energy. S12 agar was prepared by adding 1.5% Noble agar (DIFCO) to S12 medium.\nBacteria that grow on 2,6-DMN were isolated from an enrichment culture. The enrichment culture was established by inoculating 0.1 mL of activated sludge into 10 mL of S12 medium in a 125 mL screw cap Erlenmeyer flask. The activated sludge was obtained from a wastewater treatment facility in Ponco City. The enrichment culture was supplemented with adding yeast extract (0.001 % final concentration) by adding a few flakes of 2,6-DMN directly to the culture medium. The enrichment culture was incubated at 28° C. with reciprocal shaking. The culture was diluted every 4 to 7 d by replacing 9 mL of the culture with the same volume of S12 medium with 0.001% yeast extract and a few additional flakes of 2,6-DMN. Bacteria that utilized 2,6-DMN as a sole source of carbon and energy were isolated by spreading samples of the enrichment culture onto S12 agar. 2,6-DMN was placed on the interior of each Petri dish lid. The Petri dishes were sealed with parafilm and incubated upside down at 28° C. Representative bacterial colonies were then tested for the ability to use 2,6-DMN as a sole source of carbon and energy. […]"}, "[1]": {"system": "xylene monooxygenase (xylM and xylA) cloned from Sphingomonas strain ASU1", "experiment": "Oxidation of p-xylene by Escherichia coli recombinant with cloned ASU1 xylene monooxygenase genes (Clone 4a), HPLC of culture supernatant", "format": "cell-based", "conditions": "Clone 4a culture in M9 medium with p-xylene, 37° C., after 24 h of incubation", "experimental": "(§1) Standard M9 minimal medium were used to assay for oxidation of p-xylene by Escherichia coli with cloned xylene monooxygenase. The M9 medium consisted of 42.3 mM Na2HPO4, 22.1 mM KH2PO4, 8.6 mM NaCl, 18.7 mM NH4Cl, 2 mM MgSO4 and 0.1 mM CaCl2, 0.4% of glycerol was used as the carbon/energy source.\n(§2) Analyses were performed on a Hewlett Packard 1100 series with a photo diode UV-visible detector set at 230 nm (primary wavelength), 254 nm (secondary wavelength) and 450 nm as background reference and a LC/MSD-ESI negative ion spectrophotometer. The column was a Hewlett Packard part # 880967.901 Zorbax® SB-C8 (4.6 mm×25 cm), purchased from Agilient Technologies (Palo Alto, Calif.). The column temperature was controlled at 50° C. Mobile phase was […] ammonium acetate (20 mL 1 M ammonium acetate in 1800 mL water (solvent-2=S-2)) and acetonitrile (solvent-1=S-1). […]\n(§3) The conversion of p-xylene to 4-hydroxymethylbenzoic acid was monitored by reverse phase HPLC. […]\n(§4) Escherichia coli strain TOP10(pCR®2.1 TOPO™) and Escherichia coli clones expressing xylene monooxygenase (Clone 4a and Clone 6f) were inoculated into 500 mL Erlenmyer flasks containing 50 mL of M-9 supplemented with tryptophan (100 μg/mL), glycerol (0.4%), casamino acids (0.4%) and 50 μg/mL ampicillin. […] The sample supernatants were passed through 0.22 μm Acrodisc® CR PFTE filters and analyzed for metabolites of p-xylene by HPLC."}, "[2]": {"biological_target": "T1, xylene monooxygenase (xylM and xylA) cloned from plasmid pWWO (Pseudomonas putida, UniProt P21395)", "T1 construct": "expressed in transfected cells; host or cells: Escherichia coli TOP10 carrying pCR2.1-TOPO with a 2.4 kb pWWO xylM-xylA PCR fragment from P. putida ATCC 33015 (Clone 6f)", "T1 sequence (P21395 whole entry, the tested form may be a part)": "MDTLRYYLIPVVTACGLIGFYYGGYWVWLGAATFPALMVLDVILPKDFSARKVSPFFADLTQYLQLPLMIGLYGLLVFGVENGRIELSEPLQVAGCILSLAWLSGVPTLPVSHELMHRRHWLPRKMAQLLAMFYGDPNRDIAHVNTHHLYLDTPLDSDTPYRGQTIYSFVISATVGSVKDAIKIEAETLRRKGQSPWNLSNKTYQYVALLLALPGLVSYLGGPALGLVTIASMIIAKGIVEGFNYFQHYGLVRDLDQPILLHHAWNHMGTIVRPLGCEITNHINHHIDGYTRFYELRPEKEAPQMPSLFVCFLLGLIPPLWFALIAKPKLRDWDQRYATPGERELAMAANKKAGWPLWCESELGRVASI", "experiment": "Oxidation of p-xylene by Escherichia coli recombinant with cloned pWWO xylene monooxygenase genes (Clone 6f), HPLC of culture supernatant", "format": "cell-based", "conditions": "Clone 6f culture in M9 medium with p-xylene, 37° C., after 24 h of incubation", "experimental": "as §1, §2, §3, §4"}},
  "data": [
    {"compound": "Cc1ccc2cc(C)ccc2c1", "note": "[2,6-dimethylnaphthalene]", "values": [
      {"measurement": "Growth on Carbon Source", "setting": "Sphingomonas strain ASU1; listed as 2,6-DMN", "value": "able to grow"}
    ]},
    {"compound": "Cc1ccc(C)cc1", "note": "[p-xylene]", "values": [
      {"measurement": "p-xylene metabolites detected by HPLC", "setting": "[1]", "value": "Three p-xylene metabolites were detected"},
      {"measurement": "p-xylene metabolites detected by HPLC", "setting": "[2]", "value": "Three p-xylene metabolites were detected"}
    ]},
    {"compound": "c1ccccc1", "note": "[Benzene]", "values": [
      {"measurement": "Growth on Carbon Source", "setting": "Sphingomonas strain ASU1", "value": "unable to utilize"}
    ]}
  ]
}
